Assays:
HCT116 cells [1] = test: 72 Hour HCT116 Cytotoxicity Assay (CellTiter-Glo); type: cell-based; details: Homo sapiens, HCT-116, 72 h, 72 hours; read-out: HCT116 cell cytotoxicity IC50
Procedure: HCT116 cells were seeded in 96 well plates (Greiner Bio-One, Monroe, N.C.) and allowed to settle overnight. Test compound dissolved in dimethyl sulfoxide (DMSO) was added and drug incubation proceeded for 72 hours. […] After 72 hour, 50 μL of CellTiter-Glo Luminescent Cell Viability Assay reagent (Promega Corporation, Madison, Wis.) was added to cells in 200 μL of cellular media. After a proscribed incubation period, luminescence was measured using a TopCount NXT plate reader (PerkinElmer, Waltham, Mass.).

HCT116 cells [2] = test: Nicotinic Acid Rescue Cytotoxicity Assay, first method: cytotoxicity to HCT116 cells in presence and absence of 10 μM nicotinic acid; type: cell-based; details: Homo sapiens, HCT-116, 72 h
Procedure: Additionally, Nicotinic Acid (NA) rescue of cytotoxicity of Nampt inhibitors was assessed by two distinct methods. In the first method, Nampt1 inhibitor cytotoxicity was evaluated in the presence and absence of exogenous nicotinic acid (NA) at a fixed concentration. […] Twenty four hours after cells were plated, the media was removed and replaced with media containing 10 μM nicotinic acid. Compounds were then immediately added. Cell viability was then assessed at 72 h.
Using the first of the two assays described above, the 90 compounds shown in Table 5, below, were tested for cytotoxicity towards Naprt1-proficient HCT116 cells, and for the ability of NA to block the observed cytotoxicity (or “rescue” the cells from the cytotoxic activity of the tested compound). The compounds listed are referred to by a unique rescue analysis example number (i.e., R1, R2 . . . R90) that is used as a reference number in Table 4, in which the results of the cytotoxicity and rescue assays are presented.

[3] = type: in vivo; details: mice, oral NA 3 g/kg 1 h prior or up to 8 h following 300 mg/kg Exemplary Compound A
HCT-116 cell line = test: cells; details: Homo sapiens, HCT-116, 72 h, read-out: EC50 of NA rescue from Exemplary Compound A-induced cytotoxicity
Procedure: (§1) In the second method, cells were exposed to varying concentrations of NA in the presence of a fixed, toxic concentration of Nampt1 inhibitor. This allows determination of the relative effectiveness of NA at rescuing Nampt1 inhibitor-mediated cytotoxicity across cell lines. For this method, the following modifications were made to the standard cytotoxicity assay. Twenty four hours after cell were plated, a serial dilution of nicotinic acid, dissolved in water, was generated and added to the cells. […] Cell viability was then assessed at 72 h. Cell viability (after normalization to controls lacking Nampt1 inhibitor) was plotted against NA concentration.
(§2) In cases where the high asymptote of the NA rescue curve corresponded to 75% or less recovery in cell viability, the cell line was deemed to be partially rescued.
(§3) In the first set of experiments, two different cancer cell lines were employed.

MIA PaCa2 cell line = test: cells; details: Homo sapiens, MIA PaCa-2, 72 h, read-out: EC50 of NA rescue from Exemplary Compound A-induced cytotoxicity
Procedure: as §1, §2, §3

[4] = absence of nicotinic acid, read-out: HCT116 72 h cytotoxicity
[5] = presence of 10 μM nicotinic acid, read-out: HCT116 72 h cytotoxicity with 10 μM Nicotinic Acid

Row | SMILES | IC50 (HCT116 cells [2]; [4]) [nM] | IC50 (HCT116 cells [2]; [5]) [nM] | further results
1 | O=C(NCCCNS(=O)(=O)c1ccccc1-c1ccccc1)NCc1cccnc1 [Example 152, N-(3-{[(pyridin-3-ylmethyl)carbamoyl]a-mino}propyl)biphenyl-2-sulfonamide] | – | – | IC50 (HCT116 cells [1]): ~55 nM
2 | O=C(NCc1cccnc1)Nc1ccc(COc2cc(C(F)(F)F)ccc2Cl)cc1 [Example 164, 1-(4-{[2-Chloro-5-(trifluorometh-yl)phenoxy]meth-yl}phenyl)-3-(pyridin-3-ylmethyl)urea] | – | – | IC50 (HCT116 cells [1]): ~74 nM
3 | O=C(NCc1cccnc1)Nc1ccc(C[S+]([O-])c2ccccc2-c2ccccc2)cc1 (stereo not drawn) [Example 210, 1-{4-[(biphenyl-2-ylsulfinyl)meth-yl]phenyl}-3-(pyridin-3-ylmethyl)urea] | – | – | IC50 (HCT116 cells [1]): ~39 nM
4 | N#C/N=C(/NCc1ccc(COc2ccccc2-c2ccccc2)cc1)Nc1ccncc1 [Example 605, 1-{4-[(Biphenyl-2-yloxy)methyl]benzyl}-2-cyano-3-pyridin-4-ylguanidine] | – | – | IC50 (HCT116 cells [1]): ~1.1 nM
5 | N#C/N=C(\NCCCNS(=O)(=O)c1ccccc1-c1ccccc1)Nc1ccncc1 [Example R66, N-{3-[N″-cyano-N′-(pyridin-4-yl)carbamimidamido]propyl}biphenyl-2-sulfonamide] | 1.3 | 5000 | –
6 | O=C(NCc1cccnc1)Nc1ccc(NS(=O)(=O)c2cc(C(F)(F)F)ccc2C(F)(F)F)cc1 [Example R67] | 0.3 | > 1000 | –
7 | O=C(NCc1cccnc1)Nc1ccc(NS(=O)(=O)c2ccc(F)cc2-c2ccccc2)cc1 [Example R68, 5-fluoro-N-(4-{[(pyridin-3-ylmethyl)carbamoyl]amino}phenyl)biphenyl-2-sulfonamide] | 2.1 | > 5000 | –
8 | O=C(NCc1cccnc1)Nc1ccc(NS(=O)(=O)c2cc(C(F)(F)F)ccc2Cl)cc1 [Example R69, 2-chloro-N-(4-{[(pyridin-3-ylmethyl)carbamoyl]amino}phenyl)-5-(trifluoromethyl)benzenesulfonamide] | 1.3 | > 1000 | –
9 | N#C/N=C(/NCc1ccc(COc2ccccc2-c2ccccc2)cc1)Nc1ccncc1 [Example R70, 1-{4-[(biphenyl-2-yloxy)methyl]benzyl}-2-cyano-3-pyridin-4-ylguanidine] | 1.1 | > 5000 | –
10 | O=C(NCc1cccnc1)Nc1ccc(NS(=O)(=O)c2sccc2Br)cc1 [Example R71, 3-bromo-N-(4-{[(pyridin-3-ylmethyl)carbamoyl]amino}phenyl) thiophene-2-sulfonamide] | 13.2 | > 5000 | –
11 | O=C(NCc1cccnc1)Nc1ccc(NS(=O)(=O)c2cc(C(F)(F)F)ccc2F)cc1 [Example R72, 2-fluoro-N-(4-{[(pyridin-3-ylmethyl)carbamoyl]amino}phenyl)-5-(trifluoromethyl)benzenesulfonamide] | 15 | > 5000 | –
12 | O=C(NCc1ccc(NS(=O)(=O)c2cc(C(F)(F)F)ccc2Br)cc1)Nc1ccncc1 [Example R73, 2-bromo-N-(4-{[(pyridin-4-ylcarbamoyl)amino]methyl}phenyl)-5-(trifluoromethyl)benzenesulfonamide] | 1 | > 5000 | –
13 | O=C(NCc1cccnc1)Nc1ccc(NS(=O)(=O)c2cc(Cl)ccc2Cl)cc1 [Example R74, 2,5-dichloro-N-(4-{[(pyridin-3-ylmethyl)carbamoyl]amino}phenyl)benzene-sulfonamide] | 2.3 | > 5000 | –
14 | O=C(NCc1cccnc1)Nc1ccc(NS(=O)(=O)c2ccc(Cl)cc2Cl)cc1 [Example R75, 2,4-dichloro-N-(4-{[(pyridin-3-ylmethyl)carbamoyl]amino}phenyl)benzene-sulfonamide] | 30.3 | > 5000 | –
15 | Cc1cc(S(=O)(=O)Nc2ccc(NC(=O)NCc3cccnc3)cc2)c(Cl)cc1Cl [Example R76, 2,4-dichloro-5-methyl-N-(4-{[(pyridin-3-ylmethyl)carbamoyl]amino}phenyl)benzene-sulfonamide] | 1.3 | > 5000 | –
16 | O=C(NCc1cccnc1)Nc1ccc(OCc2ccccc2-c2ccccc2)cc1 [Example R77, 1-[4-(biphenyl-2-ylmethoxy)phenyl]-3-(pyridin-3-ylmethyl)urea] | 1.7 | > 5000 | –
17 | N#C/N=C(/NCCCCNC(=O)COc1ccccc1-c1ccccc1)Nc1ccncc1 [Example R78, 2-(Biphenyl-2-yloxy)-N-(4-{[(Z)-(cyanoamino)(pyridin-4-ylamino)methylidene]amino}butyl)acetamide] | 0.5 | > 5000 | –
18 | O=C(NCCCCCCOc1ccc(Cl)cc1)Nc1ccncc1 [Example R79, 1-[6-(4-Chlorophenoxy)hexyl]-3-pyridin-4-ylurea] | 88.9 | > 5000 | –
19 | O=C(NCc1cccnc1)Nc1ccc(COc2ccccc2-c2ccsc2)cc1 [Example R80, 1-(Pyridin-3-ylmethyl)-3-(4-{[2-(thiophen-3-yl)phenoxy]methyl}phenyl)urea] | 0.9 | > 5000 | –
20 | O=C(NCc1cccnc1)Nc1ccc(COc2ccccc2-c2ccncc2)cc1 [Example R81, 1-(Pyridin-3-ylmethyl)-3-(4-{[2-(pyridin-4-yl)phenoxy]methyl}phenyl)urea] | 5.4 | > 5000 | –
21 | O=C(NCc1cccnc1)Nc1ccc(COc2ccccc2-c2cccc(F)c2)cc1 [Example R82, 1-(4-{[(3′-Fluorobiphenyl-2-yl)oxy]methyl}phenyl)-3-(pyridin-3-ylmethyl)urea] | 1.9 | > 5000 | –
22 | O=C(NCc1cccnc1)Nc1ccc(COc2ccccc2-c2cccnc2)cc1 [Example R83, 1-(Pyridin-3-ylmethyl)-3-(4-{[2-(pyridin-3-yl)phenoxy]methyl}phenyl)urea] | 1.5 | > 5000 | –
23 | CCn1cc(-c2ccccc2OCc2ccc(NC(=O)NCc3cccnc3)cc2)cn1 [Example R84, 1-(4-{[2-(1-Ethyl-1H-pyrazol-4-yl)phenoxy]methyl}phenyl)-3-(pyridin-3-ylmethyl)urea] | 10.8 | > 5000 | –
24 | O=C(NCCCCCOc1ccccc1-c1ccccc1)NCc1cccnc1 [Example R85, 1-[5-(Biphenyl-2-yloxy)pentyl]-3-(pyridin-3-ylmethyl)urea] | 1.3 | > 5000 | –
25 | O=C(NCc1cccnc1)Nc1ccc(CNc2ccccc2-c2ccccc2)cc1 [Example R86, 1-{4-[(Biphenyl-2-ylamino)methyl]phenyl}-3-(pyridin-3-ylmethyl)urea] | 0.4 | 4000 | –
26 | O=C(NCc1cccnc1)Nc1ccc(C2(Oc3ccccc3-c3ccccc3)CC2)cc1 [Example R87, 1-{4-[1-(Biphenyl-2-yloxy)cyclopropyl]phenyl}-3-(pyridin-3-ylmethyl)urea] | 1.1 | 3000 | –
27 | O=C(NCc1cccnc1)Nc1ccc(NS(=O)(=O)c2ccccc2-c2ccn[nH]2)cc1 [Example R88, 2-(1H-Pyrazol-5-yl)-N-(4-{[(pyridin-3-ylmethyl)carbamoyl]amino}phenyl)benzene-sulfonamide] | 2.5 | > 5000 | –
28 | CCn1cc(-c2ccccc2S(=O)(=O)Nc2ccc(NC(=O)NCc3cccnc3)cc2)cn1 [Example R89, 2-(1-Ethyl-1H-pyrazol-4-yl)-N-(4-{[(pyridin-3-ylmethyl)carbamoyl]amino}phenyl)benzene-sulfonamide] | 34.2 | > 5000 | –
29 | O=C(NCc1cccnc1)Nc1ccc(NS(=O)(=O)c2ccccc2-c2ccccc2)nc1 [Example R90, N-(5-{[(Pyridin-3-ylmethyl)carbamoyl]amino}pyridin-2-yl)biphenyl-2-sulfonamide] | 28.7 | > 5000 | –
30 | O=C(O)c1cccnc1 [NA, nicotinic acid] | – | – | effect of NA on Exemplary Compound A lethality [3]: completely blocked; EC50 (HCT-116 cell line): 400 nM; EC50 (MIA PaCa2 cell line): > 10000 nM
